Measurements published in US5239110A, “Phenylcyclohexanol derivatives as agents for treating CNS disorders” (Sterling Winthrop, Inc., priority 1992, dated 1993).

Molecular target: sigma receptors
Test: sigma receptor binding, [3H]di(2-tolyl)guanidine (DTG) assay
Design: species or system guinea pig (male Hartley), brain tissue
Conditions: [3H]DTG approx. 4 nM, 25° C., 90 min, guinea pig brain membranes; for Ki: pH 7.4
Method: Brain tissue was prepared from male Hartley guinea pigs (Hazelton Labs, Denver, PA) which were anesthetized with CO2 and sacrificed by decapitation. All animal care and use procedures were in accord with the "Guide for the Care and Use of Laboratory Animals" (NIH Publ. No. 86-23, 20 1985). Homogenization was performed in 10 volumes (wt/vol) of 0.32 M sucrose with a Brinkmann Polytron at setting 5, 30 sec. The homogenate was centrifuged at 900×g for 10 min at 4° C., and the supernatant was collected and centrifuged at 22,000×g for 20 min at 4° C. The pellet was resuspended in 10 volumes of Tris-HCl buffer (50 mM, pH 7.4), incubated at 37° C. for 30 min and centrifuged at 22,000×g for 20 min at 4° C. Following this, the pellet was resuspended in Tris buffer and frozen in 5-10 mL aliquots corresponding to a tissue concentration of 100 mg/mL at -70° C. Binding characteristics of the membranes were stable for at least one month when stored at -70° C.
On the day of the assay, membrane aliquots were thawed, resuspended in fresh Tris buffer and stored on ice until use. Each assay tube contained 100 μL of [3H](+)pentazocine at a final concentration of approximately 0.5 nM, [3H]di(2-tolyl)guanidine (DTG) at a final concentration of approximately 4 nM, 100 μL of various concentrations of the compounds of interest, 500 μL of the tissue suspension and 300 μL of buffer to a final assay volume of 1 mL and a final tissue concentration of approximately 8 mg/tube, corresponding to approximately 0.15 mg protein/tube. Nonspecific binding was defined by addition of a final concentration of 1 μM haloperidol to blank tubes for [^3 H]+pentazocine assay or by addition of a final concentration of 10 μM haloperidol to blank tubes for [^3 H]DTG assay. All tubes were incubated at 37° C. for 150 minutes ([^3 H]+pentazocine) or at 25° C. for 90 min ([3H]DTG) before termination of the reaction by filtration over Whatman GF/B glass fiber filters that were presoaked in a solution of 0.5% polyethyleneimine for at least 1 hr prior to use. Filters were washed with three 4 mL volumes of cold Tris-HCl buffer.
Following addition of scintillation cocktail, samples were allowed to equilibrate for at least 4 hr. The amount of bound radioactivity was determined by liquid scintillation spectrometry using a Beckman LS 5000 TA liquid scintillation counter with an efficiency for tritium of approximately 60%.
Data obtained on the compounds in the di(2-tolyl)guanidine (DTG) and d-pentazocine (+pent) assays, expressed as a Ki value in nM or % inhibition at 10 nM, are as follows: […]

| SMILES | Ki | DTG % inhib (10 nM) (at 10 nM) |
| --- | --- | --- |
| CC(=O)O[C@]1(c2ccccc2)CC[C@H](N(C)C)CC1 [Example 2, cis-4-(dimethylamino)-1-phenylcyclohexylacetate] | 5 µM | – |
| CCC(=O)O[C@]1(c2ccccc2)CC[C@@H](N(C)C)CC1 [Example 4, trans-4(dimethylamino)-1-phenylcyclohexyl propionate] | 4.08 µM | – |
| CCC(=O)O[C@]1(c2ccccc2)CC[C@H](N(C)C)CC1 [Example 3, cis-4-(dimethylamino)-1-phenylcyclohexyl propionate] | 0.288 µM | – |
| CN(C)C1CCC(O)(c2ccccc2)CC1 (stereo not shown) [Example 1, 4-(Dimethylamino)-1-phenylcyclohexanol] | – | 61% |
